Experiments:
in vitro [1] = details: human, colo 320 cells, pH 7.5
Protocol: (§1) Each of the reaction mixtures was prepared by dissolving 1 mg of the ester in 10 μl of ethanol, and by mixing with it, 90 μl of a 0.1M phosphoric acid buffer (having a pH of 7.5), plus one of the following: 100 μl of a cell suspension, or 20 or 30 μl of whole blood, or 50 μl of tissue homogenate. […] The cells numbers in 100 μl of the cell suspension used in the reaction were as follows: rat liver cancer cells Anr4=7×10^6 ; rat pancreas cancer cells ARIP=8×10^6 ; rat sarcoma cells XC=5×10^6 ; human histiocytic leukemia cells U937=1×10^7 ; human pancreas cancer cells MIA PaCa-2=8×10^6 ; and human intestinum crassum cancer cells Colo 320=1×10^7. Fifty μl of the tissue homogenate corresponded to 20 mg of wet tissue.
(§2) Each of these reaction mixtures was stirred for 12 hours at 30° C. by a magnetic stirrer; then 1.5 μl of 2N HCl was added, to bring the pH to about 2.5, and extraction with 1 ml of ethyl acetate in the presence of a saturated sodium chloride was carried out twice. The ethyl acetate layers of each sample were combined, the volume was adjusted to precisely 2 ml, and it was divided into 1.7 ml and 0.3 ml. The former was concentrated under reduced pressure, and the contained produced carboxylic acid was isolated by thin-layer preparative chromatography. A solution of diazomethane in ether was added to it, to methylate it, and the absolute configuration and the optical purity of the methylated product were determined by high-performance liquid chromatography using a chiral column. The latter 0.3 ml was directly methylated, and then it was concentrated and adjusted to 0.3 ml again, and the methyl ester of the contained produced carboxylic acid was determined quantitatively by gas chromatography, from which the hydrolyzed rate was determined. The column used in the high-performance liquid chromatography was a Chiralcell OJ or OD column (trade name; 4.6×250 mm) manufactured by Daicel; the elution was carried out by using a 10% 2-propanol/hexane mixture; and the flow velocity was 1 or 0.75 ml/min. The column used in the gas chromatography was a capillary column of OV-1 (0.25 mm×25 m), and the analysis temperature was 120° to 180° C.

in vitro [2] = details: human, mia paca-2 cells, pH 7.5
Protocol: as §1, §2

[3] = tested on: rat liver cancer cells Anr4; assay: Stereoselective hydrolysis of anticancer agent esters with rat liver cancer cells Anr4; details: Anr4; 12 hours at 30° C., pH 7.5
Protocol: as §1, §2

[4] = Stereoselective hydrolysis of anticancer agent esters with normal rat muscle homogenate; details: 12 hours at 30° C., pH 7.5
[5] = Stereoselective hydrolysis of anticancer agent esters with normal rat liver homogenate; details: 12 hours at 30° C., pH 7.5
[6] = tested on: rat pancreas cancer cells ARIP; assay: Stereoselective hydrolysis of anticancer agent esters with rat pancreas cancer cells ARIP; details: ARIP; 12 hours at 30° C., pH 7.5
Protocol: as §1, §2

in vitro [7] = details: rat, xc cells, pH 7.5
Protocol: as §1, §2

[8] = tested on: human histiocytic leukemia cells U937; assay: Stereoselective hydrolysis of anticancer agent esters with human histiocytic leukemia cells U937; details: U937; 12 hours at 30° C., pH 7.5
Protocol: as §1, §2

in vitro [9] = details: rat, arip cells, pH 7.5
Protocol: as §1, §2

rat sarcoma cells XC = assay: Stereoselective hydrolysis of anticancer agent esters with rat sarcoma cells XC; details: XC; 12 hours at 30° C., pH 7.5
Protocol: as §1, §2

in vitro [10] = details: human, u937 cells, pH 7.5
Protocol: as §1, §2

in vitro [11] = details: rat, anr4 cells, pH 7.5
Protocol: as §1, §2

[12] = Stereoselective hydrolysis of anticancer agent esters with human whole blood; details: pH 7.5; for enantiomer excess of the carboxylic acid produced by the hydrolysis: human whole blood, 12 hours at 30° C.; for metabolised at 12 h: human, whole blood
Protocol: as §1, §2

[13] = tested on: human intestinum crassum cancer cells Colo 320; assay: Stereoselective hydrolysis of anticancer agent esters with human intestinum crassum cancer cells Colo 320; details: Colo320; 12 hours at 30° C., pH 7.5
Protocol: as §1, §2

[14] = tested on: human pancreas cancer cells MIA PaCa-2; assay: Stereoselective hydrolysis of anticancer agent esters with human pancreas cancer cells MIA PaCa-2; details: MIA PaCa-2; 12 hours at 30° C., pH 7.5
Protocol: as §1, §2

[15] = Stereoselective hydrolysis of anticancer agent esters with normal rat pancreas homogenate; details: 12 hours at 30° C., pH 7.5
Protocol: as §1, §2

in vitro [16] = details: rat, blood, pH 7.5
Protocol: as §1, §2

[17] = Stereoselective hydrolysis of anticancer agent esters with rat whole blood; details: pH 7.5; for enantiomer excess of the carboxylic acid produced by the hydrolysis: rat whole blood, 12 hours at 30° C.; for metabolised at 12 h: rat, whole blood
Protocol: as §1, §2

in vitro [18] = details: human, blood, pH 7.5
Protocol: as §1, §2

[19] = Stereoselective hydrolysis of anticancer agent esters with rat liver cancer cells Anr4; details: rat, anr4 cells, pH 7.5
Protocol: as §1, §2

[20] = Stereoselective hydrolysis of anticancer agent esters with rat pancreas cancer cells ARIP; details: rat, arip cells, pH 7.5
Protocol: as §1, §2

[21] = Stereoselective hydrolysis of anticancer agent esters with rat sarcoma cells XC; details: rat, xc cells, pH 7.5
Protocol: as §1, §2

[22] = Stereoselective hydrolysis of anticancer agent esters with human histiocytic leukemia cells U937; details: human, u937 cells, pH 7.5
Protocol: as §1, §2

[23] = Stereoselective hydrolysis of anticancer agent esters with human intestinum crassum cancer cells Colo 320; details: human, colo 320 cells, pH 7.5
Protocol: as §1, §2

[24] = Stereoselective hydrolysis of anticancer agent esters with human pancreas cancer cells MIA PaCa-2; details: human, mia paca-2 cells, pH 7.5
Protocol: as §1, §2

SMILES | metabolised at 12 h (in vitro [1]) | metabolised at 12 h (in vitro [2]) | enantiomer excess of the carboxylic acid produced by the hydrolysis [3] | enantiomer excess of the carboxylic acid produced by the hydrolysis [4] | enantiomer excess of the carboxylic acid produced by the hydrolysis [5] | enantiomer excess of the carboxylic acid produced by the hydrolysis [6] | metabolised at 12 h (in vitro [7]) | enantiomer excess of the carboxylic acid produced by the hydrolysis [8] | metabolised at 12 h (in vitro [9]) | enantiomer excess of the carboxylic acid produced by the hydrolysis (rat sarcoma cells XC) | metabolised at 12 h (in vitro [10]) | metabolised at 12 h (in vitro [11]) | enantiomer excess of the carboxylic acid produced by the hydrolysis [12] | enantiomer excess of the carboxylic acid produced by the hydrolysis [13] | enantiomer excess of the carboxylic acid produced by the hydrolysis [14] | enantiomer excess of the carboxylic acid produced by the hydrolysis [15] | metabolised at 12 h (in vitro [16]) | enantiomer excess of the carboxylic acid produced by the hydrolysis [17] | metabolised at 12 h (in vitro [18]) | metabolised at 12 h [19] | other results
CC(C(=O)Oc1ccc(N(CCCl)CCCl)cc1)c1ccccc1 (racemic) [Ia, (±)-4-bis(2-chloroethyl)aminophenyl 2-phenylpropionate] | 3% | 6% | 68.9 % e.e. | 1.8 % e.e. | 15.7 % e.e. | 42.8 % e.e. | 6.3% | 72.3 % e.e. | 10.2% | 18.6 % e.e. | 5.2% | 20.9% | 9.1 % e.e. | 68.9 % e.e. | 87.1 % e.e. | 1.0 % e.e. | 5.8% | 9.4 % e.e. | 2.4% | – | –
O=C(Oc1ccc(N(CCCl)CCCl)cc1)C(Cc1ccccc1)NC(=O)C(F)(F)F (racemic) [Ic, (±)-4-bis(2-chloroethyl)aminophenyl 2-trifluoroacetamido-3-phenylpropionate] | 2.4% | 7.2% | 94.9 % e.e. | 72.4 % e.e. | 93.2 % e.e. | 83.0 % e.e. | 10.6% | > 99 % e.e. | 14.6% | 77.9 % e.e. | 9.6% | 0.6% | 23.7 % e.e. | 35.9 % e.e. | 2.6 % e.e. | > 99 % e.e. | 18.2% | 18.3 % e.e. | 8% | – | –
CC(C(=O)OC[C@H]1O[C@@H](n2cc(F)c(=O)[nH]c2=O)[C@H](O)[C@@H]1O)c1ccccc1 (stereo partly drawn) [IIa, 5'-(RS)-(2-phenylpropionyl)-5-fluorouridine] | – | – | 81.6 % e.e. | 61.7 % e.e. | 85.6 % e.e. | 91.3 % e.e. | – | 38.2 % e.e. | – | 82.1 % e.e. | – | – | 12.5 % e.e. | – | – | 36.9 % e.e. | – | 53.7 % e.e. | – | 26.3% | metabolised at 12 h [20]: 25.2%; metabolised at 12 h [21]: 16.8%; metabolised at 12 h [12]: 5.3%; metabolised at 12 h [17]: 6.3%
O=C(OC[C@H]1O[C@@H](n2cc(F)c(=O)[nH]c2=O)[C@H](O)[C@@H]1O)C(Cc1ccccc1)NC(=O)C(F)(F)F (stereo partly drawn) [IIc, 5'-(RS)-(2-trifluoroacetamido-3-phenylpropionyl)-5-fluorouridine] | – | – | 98.4 % e.e. | 87.8 % e.e. | > 99 % e.e. | > 99 % e.e. | – | 57.8 % e.e. | – | > 99 % e.e. | – | – | 66.9 % e.e. | 64.6 % e.e. | 19.0 % e.e. | > 99 % e.e. | – | 41.8 % e.e. | – | 7.8% | metabolised at 12 h [20]: 1.9%; metabolised at 12 h [22]: 12.6%; metabolised at 12 h [21]: 3.4%; metabolised at 12 h [12]: 36.1%; metabolised at 12 h [23]: 13.8%; metabolised at 12 h [24]: 20.6%; metabolised at 12 h [17]: 16.3%
